# Experimental data taken from ChEMBL document CHEMBL5252625, “Development of sulfonium tethered peptides conjugated with HDAC inhibitor to improve selective toxicity for cancer cells” (Bioorg Med Chem, 2023).
# Active and inactive are the calls of the source. The calls are words filed in the database; no cut-off is given here. Non-standard residues stand in square brackets, D forms with d. Residues, ends and D or L forms follow the SMILES beside them. *: point of attachment. Ahx = NCCCCCC(=O)O; NHOH = ON*
# Columns and labels:
# Huh-7 [1] = assay: Induction of cell cycle arrest in human Huh-7 cells assessed as accumulation of cells at G2 phase at 10 uM incubated for 24 hrs by FACscan flow cytometer analysis (reference value: 25.74%); type: functional
# Huh-7 [2] = assay: Induction of cell cycle arrest in human Huh-7 cells assessed as accumulation of cells at G1 phase at 10 uM incubated for 24 hrs by FACscan flow cytometer analysis (reference value: 39.68%); type: functional
# [3] = Hemolytic activity in mouse erythrocytes assessed as hemolysis at 80 uM incubated for 1.5 hrs by microplate reader assay; type: toxicity, cell-based; settings: erythrocyte
# [4] = target: T1, Histone deacetylase (Homo sapiens) (UniProt Q13547+O15379+Q9UBN7+Q92769+Q9UQL6+Q8WUI4+Q9BY41+Q96DB2+P56524+Q9UKV0+Q969S8); assay: Inhibition of HDAC in human HepG2 cells assessed as increase in histone H3 acetylation at 20 uM incubated for 24 hrs by Western blot analysis; type: cell-based
# Histone deacetylase = assay: Inhibition of HDAC in human HeLa cell extracts using Boc-Lys(Ac)-AM as substrate by fluorescence based analysis
# Huh-7 [5] = assay: Induction of apoptosis in human Huh-7 cells assessed as viable cells at 10 uM incubated for 24 hrs by FITC Annexin V/propidium iodide staining based flow cytometry analysis (reference value: 92.6%); type: functional; settings: read-out: Activity
# [6] = target: T1, Histone deacetylase (Homo sapiens); assay: Inhibition of HDAC in human Huh-7 cells assessed as increase in histone H3 acetylation at 20 uM incubated for 24 hrs by Western blot analysis; type: cell-based
# Huh-7 [7] = assay: Induction of apoptosis in human Huh-7 cells assessed as early apoptotic cells at 10 uM incubated for 24 hrs by FITC Annexin V/propidium iodide staining based flow cytometry analysis (reference value: 1.85%); type: functional
# Huh-7 [8] = assay: Induction of cell cycle arrest in human Huh-7 cells assessed as accumulation of cells at S phase at 10 uM incubated for 24 hrs by FACscan flow cytometer analysis (reference value: 41.7%); type: functional
# Huh-7 [9] = assay: Induction of apoptosis in human Huh-7 cells assessed as late apoptotic cells at 10 uM incubated for 24 hrs by FITC Annexin V/propidium iodide staining based flow cytometry analysis (reference value: 5.19%); type: functional
# Huh-7 [10] = assay: Induction of cell cycle arrest in human Huh-7 cells assessed as accumulation of cells at sub G1 phase at 10 uM incubated for 24 hrs by FACscan flow cytometer analysis relative to control; type: functional
# Huh-7 [11] = assay: Induction of apoptosis in human Huh-7 cells assessed as necrotic cells at 10 uM incubated for 24 hrs by FITC Annexin V/propidium iodide staining based flow cytometry analysis (reference value: 0.401%); type: functional
# HT-29 = assay: Antiproliferative activity against human HT-29 cells incubated for 48 hrs by CCK8 method; type: functional, cell-based; settings: HT-29, 48 h
# Huh-7 [12] = assay: Antiproliferative activity against human Huh-7 cells incubated for 48 hrs by CCK8 method; type: functional, cell-based; settings: Huh-7, 48 h
# [13] = Drug uptake in human Huh-7 cells assessed as cell penetration incubated for 24 hrs by flow cytometry analysis; type: ADME, cell-based; settings: huh-7, 24 h
# HepG2 = assay: Antiproliferative activity against human HepG2 cells incubated for 48 hrs by CCK8 method; type: functional, cell-based; settings: HepG2, 48 h
# [14] = Drug localization in human Huh-7 cells incubated for 24 hrs by DAPI staining based microscopy analysis; type: ADME, cell-based; settings: huh-7, 24 h
# [15] = Cytotoxicity activity against human HEK293T cells incubated for 48 hrs by CCK8 method; type: toxicity, cell-based, HEK-293T
# Huh-7 [16] = assay: Induction of cell cycle arrest in human Huh-7 cells assessed as accumulation of cells at S phase at 2.5 uM incubated for 24 hrs by FACscan flow cytometer analysis (reference value: 41.7%); type: functional
# Huh-7 [17] = assay: Induction of apoptosis in human Huh-7 cells assessed as early apoptotic cells at 5 uM incubated for 24 hrs by FITC Annexin V/propidium iodide staining based flow cytometry analysis (reference value: 1.85%); type: functional
# Huh-7 [18] = assay: Induction of cell cycle arrest in human Huh-7 cells assessed as accumulation of cells at G1 phase at 2.5 uM incubated for 24 hrs by FACscan flow cytometer analysis (reference value: 39.68%); type: functional
# Huh-7 [19] = assay: Induction of apoptosis in human Huh-7 cells assessed as necrotic cells at 5 uM incubated for 24 hrs by FITC Annexin V/propidium iodide staining based flow cytometry analysis (reference value: 0.401%); type: functional
# Huh-7 [20] = assay: Induction of apoptosis in human Huh-7 cells assessed as viable cells at 5 uM incubated for 24 hrs by FITC Annexin V/propidium iodide staining based flow cytometry analysis (reference value: 92.6%); type: functional; settings: read-out: Activity
# Huh-7 [21] = assay: Induction of apoptosis in human Huh-7 cells assessed as late apoptotic cells at 5 uM incubated for 24 hrs by FITC Annexin V/propidium iodide staining based flow cytometry analysis (reference value: 5.19%); type: functional
# Huh-7 [22] = assay: Induction of cell cycle arrest in human Huh-7 cells assessed as accumulation of cells at sub G1 phase at 2.5 uM incubated for 24 hrs by FACscan flow cytometer analysis relative to control; type: functional
# Huh-7 [23] = assay: Induction of cell cycle arrest in human Huh-7 cells assessed as accumulation of cells at G2 phase at 2.5 uM incubated for 24 hrs by FACscan flow cytometer analysis (reference value: 25.74%); type: functional
SMILES,Activity (Huh-7 [1]),Activity (Huh-7 [2]),inhibition [4],IC50 (Histone deacetylase),viability at 10 µM (Huh-7 [5]),inhibition [6],Activity (Huh-7 [7]),Activity (Huh-7 [8]),Activity (Huh-7 [9]),Activity (Huh-7 [10]),Activity (Huh-7 [11]),also measured
CSCC[C@H](NC(=O)[C@H](CCCNC(=N)N)NC(=O)[C@H](CC(C)C)NC(=O)[C@H](CCCNC(=N)N)NC(=O)[C@H](CCSC)NC(=O)[C@H](CC(C)C)NC(=O)[C@H](CCCNC(=N)N)NC(=O)[C@H](CC(C)C)NC(=O)[C@H](CC(C)C)NC(=O)[C@H](CCCNC(=N)N)NC(C)=O)C(=O)N[C@@H](CC(C)C)C(=O)N[C@@H](CC(C)C)C(=O)N[C@@H](CCCNC(=N)N)C(=O)N[C@@H](CC(C)C)C(N)=O (Ac-RLLRLMRLRMLLRL-NH2),6.43%,58.07%,inactive,> 100 µM,69.6%,inactive,3.93%,36.8%,21.1%,6.9%,5.39%,Activity [3]: Toxic
CSCC[C@H](NC(=O)[C@H](CCCNC(=N)N)NC(=O)[C@H](CC(C)C)NC(=O)[C@H](CCCNC(=N)N)NC(=O)[C@H](CCSC)NC(=O)[C@H](CC(C)C)NC(=O)[C@H](CCCNC(=N)N)NC(=O)[C@H](CC(C)C)NC(=O)[C@H](CC(C)C)NC(=O)[C@H](CCCNC(=N)N)NC(C)=O)C(=O)N[C@@H](CC(C)C)C(=O)N[C@@H](CC(C)C)C(=O)N[C@@H](CCCNC(=N)N)C(=O)N[C@@H](CC(C)C)C(=O)NCCCCCC(=O)NO (Ac-RLLRLMRLRMLLRL[Ahx]-{NHOH}),9.53%,47.63%,Active,0.446 µM,75%,Active,5.46%,37.76%,16.5%,10.82%,3.03%,IC50 (HT-29): 42.6 µM; IC50 (Huh-7 [12]): 28.1 µM; Drug uptake [13]: Active; IC50 (HepG2): 34 µM; Drug uptake [14]: Active; IC50 at 48 h [15]: 39.8 µM
O=C(CCCCCCC(=O)Nc1ccccc1)NO [VORINOSTAT],–,–,–,–,–,–,–,–,–,–,–,Activity (Huh-7 [16]): 25.97%; Activity (Huh-7 [17]): 6.4%; Activity (Huh-7 [18]): 46.95%; Activity (Huh-7 [19]): 9.35%; viability at 5 µM (Huh-7 [20]): 47.2%; Activity (Huh-7 [21]): 37%; Activity (Huh-7 [22]): 7.16%; Activity (Huh-7 [23]): 18.46%
